Test results reported in patent publication US20250276100A1, “DEVELOPMENT OF NTSR TARGETED AGENTS FOR IMAGING AND THERAPY APPLICATIONS” (THE UNIVERSITY OF NORTH CAROLINA AT CHAPEL HILL, priority 2022, published 2025).
“Also recorded” adds a separate entry of the source. Where two headings read alike, the source gives them in different places. One block for each molecule: values may come before it. Where a SMILES comes first, the peptide text is derived from it. [ ]: non-standard residue; d: D form. The star is where a group is joined. Gly(1-amidinopiperidin-4-yl) = N=C(N)N1CCC([C@H](N)C(=O)O)CC1; Gly(piperidin-4-yl) = N[C@H](C(=O)O)C1CCNCC1; NMeR = CN[C@@H](CCCNC(=N)N)C(=O)O; Tle = CC(C)(C)[C@H](N)C(=O)O; X1 = O=S(=O)(CCOCCOCCF)CC*

How the values were obtained:
tumor = system: tumor
Excerpt: Copper-64 (t1/2=12.7 hr) decays by β+ (20%) and β− emission (37%), as well as electron capture (43%), making it well suited for radiolabeling proteins, antibodies and peptides, for both PET imaging (β+) and therapy (β+ and β−). Limitations to the chelating agents currently used with ^64Cu include significant loss of ^64Cu from the conjugate, leading to high uptake in the liver. In order to overcome this limitation, a new class of bifunctional chelators (BFCs) based on the hexaazamacrobicyclic sarcophagine cage SarAr (1-N-(4-aminobenzyl)-3,6,10,13,16,19-hexaazabicyclo[6.6.6]-eicosane-1,8-diamine) was synthesized. These ligands coordinate metal ions such as Cu^2+ within the multiple macrocyclic rings comprising the Sar cage structure, yielding extraordinarily stable complexes that are inert to dissociation of the metal ion. The functionalization approach of Sar cage was improved through a direct alkylation (SN2) reaction.
However, the kidneys have much higher tracer uptake compared with liver, while the pattern was reversed on PET imaging (Cu-64 falls off DOTA and leads to high liver uptake).

[1] = side by side comparison of 64Cu labeled SR-CP-05 with NT peptide analogs and 3BP-227 (FIG. 8), tumor uptake and contrast; format: in vivo; details: tumor; for tissue uptake: mouse, NT peptide analogs, read-out: absolute tumor uptake value; for tissue uptake at 1 hr: FIG. 8 side by side comparison, 1 hr post injection
Excerpt: (§1) The NTSR1 targeted imaging agent was constructed based on NTS peptide derivatives. Although high tumor-to-background contrast could be obtained, the absolute tumor uptake was moderate with fast clearance from the subject. Moreover, these NTSR1 binding peptides are generally agonists of NTSR1, which may promote tumor progress at high concentration. This may not be a concern for PET imaging due to the limited amount, but it could be a potential risk in treatment. Antagonistic SR142948A based agents were developed, the lead agent being 3BP-227. Side by side comparisons between the lead agent SR-CP-05 and previously reported agents were performed. […] Importantly, SR-CP-05 maintained >15% ID/g tumor uptake at 48 hr post injection. In contrast, the tumor uptake of 3BP-227 decreased to 2.3% ID/g at 24 hr post injection. The unique distribution profile of SR-CP-05 can provide an imaging and radionuclide-based therapy agent targeting NTSR1.
(§2) SR-CP-05 was discovered to be well suited for therapy applications. […] Clearly, the fast clearance may be acceptable from an imaging point of view, but these ligands are not suited for therapeutic applications. […] Importantly, high contrast (tumor/background >20) was obtained at 1 hr post injection and the washout was minimal even after 48 hr post injection. […] Clearly, SR-CP-05 represents a highly promising ligand for both imaging and therapy applications.
(§3) Solution 1) The discovery of a new NTSR1 ligand SR-CP-05 for targeted imaging and therapy. The introduction of crosslinked polyamines into SR142948A (leading to the new agent, SR-CP-05) could increase the tumor uptake by 10 times compared with peptide based agents. Although the tumor to muscle contrast was reduced somewhat right after injection, the ratio is still >20 at 1 hr post injection. More importantly, the agent stayed within the tumor for up to 48 hr, making it useful for therapeutic applications as well. Side by side comparisons were made between SR-CP-05 and previously reported agents. […] Importantly, high contrast (tumor/muscle >20) was also obtained for SR-CP-05 at 1 hr post injection and the washout is minimal after 48 hr post injection (compared with tumor/muscle >3 at 1 hr post injection for 3BP-227). […] The unique distribution profile of SR-CP-05 provides an imaging and radionuclide-based therapy targeting NTSR1.

NTSR1 [2] = target: T1, NTSR1 (Homo sapiens, UniProt P30989); assay: in vivo distribution profile of SR-CP-05 derivatives (FIG. 13)
T1 construct: from tissue; host or cells: NTSR1-positive tumour in vivo

NTSR1 [3] = target: T1, NTSR1; assay: side by side comparison of 64Cu labeled SR-CP-05 with NT peptide analogs and 3BP-227 (FIG. 8), tumor uptake and contrast; format: in vivo
Excerpt: as §1, §2, §3

PC3 tumor = assay: microPET imaging and biodistribution of 18F labeled NTS peptide agent in PC3 tumor-bearing nude mice; format: in vivo
Protocol: (§4) The arrow indicates tumor. […]
(§5) Stabilized NTS peptide derivatives and constructed NTSR1 PET agents have been developed. A stabilized NTS analog with a Cys for ^18F labeling (Cys-NTSmut: Cys-pipGly-Pro-pipAmGly-Arg-Pro-Tyr-tBuGly-Leu-OH) was designed. […] Biodistribution studies were performed at 3 hr post injection, showing the tumor to muscle, liver, and kidney ratios at 19.4±5.5, 15.6±4.1, and 3.0±0.3, respectively. […] Despite the high contrast, its tumor retention is low.
(§6) Robust ^18F-labeling methods for facile preparation of ^18F-NTS agents based on NT peptide derivatives were developed. As one of the commonly used PET radioisotopes, ^18F can be easily produced in high quantities on a medical cyclotron with an ideal half-life of 110 min for imaging applications. The half-life of ^18F is sufficient to allow synthesis, transportation, and imaging procedures to be extended over several hours, while the patient is subjected to a limited amount of radiation exposure. A platform technology based on vinyl sulfone and TTCO ligation was developed, both of which are highly efficient for ^18F PET probe construction. After establishing efficient ^18F labeling methods, a stabilized NTS analog was designed with a Cys for ^18F labeling (Cys-NTSmut: Cys-pipGly-Pro-pipAmGly-Arg-Pro-Tyr-tBuGly-Leu-OH). Both ^18F-VS and TTCO ligation have been used to construct ^18F labeled PET agents targeting NTSR1.

[4] = as above; format: in vivo; details: male, athymic nude, mouse, PC3 tumor model; for tissue to tissue ratio at 3 h: biodistribution at 3 hr post injection
Protocol: as §4, §5, §6

[5] = PC3 tumor model, biodistribution at 3 hr post injection

T1 sequence (P30989 whole entry): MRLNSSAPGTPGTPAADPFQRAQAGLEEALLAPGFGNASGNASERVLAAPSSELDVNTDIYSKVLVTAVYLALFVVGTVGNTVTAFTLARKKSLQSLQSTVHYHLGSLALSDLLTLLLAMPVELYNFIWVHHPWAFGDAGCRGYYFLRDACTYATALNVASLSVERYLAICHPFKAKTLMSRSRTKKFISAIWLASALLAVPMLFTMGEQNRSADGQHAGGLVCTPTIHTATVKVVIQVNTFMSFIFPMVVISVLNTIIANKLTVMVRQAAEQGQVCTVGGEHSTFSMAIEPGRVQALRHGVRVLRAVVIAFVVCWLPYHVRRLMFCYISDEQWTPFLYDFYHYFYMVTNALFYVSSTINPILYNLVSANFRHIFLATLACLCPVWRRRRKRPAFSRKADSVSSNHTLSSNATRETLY

SMILES: CC[N+]1=C(/C=C/C=C/C=C2/N(CCCCCC(=O)NCCCC[C@H](NC(=O)CN3CCN(CC(=O)O)CCN(CC(=O)O)CCN(CC(=O)O)CC3)C(=O)NCCCCCC(=O)N[C@@H](CC(=O)O)C(=O)NCC(=O)N[C@@H](CCC(=O)O)C(=O)NC(C)C(=O)O)c3ccc4c(S(=O)(=O)O)cc(S(=O)(=O)O)cc4c3C2(C)C)C(C)(C)c2c1ccc1c(S(=O)(=O)[O-])cc(S(=O)(=O)O)cc21 (some centres unmarked) [DOTA-K(Cy5.5)-Ahx-DGEA]
in vivo distribution pattern (tumor): discrepancy between optical and PET imaging
ex vivo distribution pattern (tumor; in vivo): discrepancy between optical and PET imaging

SMILES: CC(=O)N[C@@H](CCCCN)C(=O)N1CCC[C@H]1C(=O)N(C)[C@@H](CCCNC(=N)N)C(=O)N[C@@H](CCCNC(=N)N)C(=O)N1CCC[C@H]1C(=O)N[C@@H](Cc1ccc(O)cc1)C(=O)N[C@H](C(=O)N[C@@H](CC(C)C)C(=O)O)C(C)(C)C [NTS20.3, reference compound] (Ac-KP[NMeR]RPY[Tle]L-OH; N-terminus and C-terminus assumed)
tissue uptake [1]: ~1.5 %ID/g

SMILES: CC(C)C[C@H](NC(=O)[C@@H](NC(=O)[C@H](Cc1ccc(O)cc1)NC(=O)[C@@H]1CCCN1C(=O)[C@H](CCCNC(=N)N)NC(=O)[C@@H](NC(=O)[C@@H]1CCCN1C(=O)[C@@H](N)C1CCNCC1)C1CCN(C(=N)N)CC1)C(C)(C)C)C(=O)O [NTSmut, reference compound] (H-[Gly(piperidin-4-yl)]P[Gly(1-amidinopiperidin-4-yl)]RPY[Tle]L-OH; N-terminus and C-terminus assumed)
tissue uptake [1]: ~1.5 %ID/g

The next lines start with results.

liver uptake (NTSR1 [2]; in vivo): still relatively high
tumor/background contrast (NTSR1 [3]; 1 hr post injection): > 20
tumor/muscle ratio (NTSR1 [3]; 1 hr post injection): > 20
tumor uptake (NTSR1 [3]; FIG. 8 side by side comparison, 1 hr post injection): > 15 % ID/g
tumor washout (NTSR1 [3]; after 48 hr (two days) post injection): only a minimal amount of tumor wash out
time the agent stayed within the tumor (NTSR1 [3]; in vivo): up to 48 hr
tumor uptake (NTSR1 [3]; in vivo): both high and persistent tumor uptake
tumor uptake higher than 3BP-227 (NTSR1 [3]; side by side comparison): 75%
tissue uptake at 24 hr ([1]; 24 hr post injection): > 15 %ID/g
tissue uptake at 48 hr ([1]; 48 hr post injection): > 15 %ID/g
tissue uptake at 1 hr [1]: 15.5 %ID/g
tissue uptake at 1 hr ([1]; other: injection (kind of injection not stated)): 15.6 %ID/g
tissue uptake at 1 hr ([1]; other: injection): 15.6 %ID/g
SMILES: CNC(=O)c1ccc(-n2nc(C(=O)NC3(C(=O)O)C4CC5CC(C4)CC3C5)cc2-c2c(OC)cccc2OC)c(C(C)C)c1 (centres unmarked) [SR-CP-05]
overall side by side comparison (NTSR1 [3]; 64Cu labeled, FIG. 8): outperforms both NT peptide analogs and other agents based on SR142948A

tumor uptake relative to SR-CP-05 (NTSR1 [2]; in vivo): less than half of SR-CP-05
SMILES: COc1cccc(OC)c1-c1cc(C(=O)NC2(C(=O)O)C3CC4CC(C3)CC2C4)nn1-c1ccc(C(=O)N(C)CCCN(C)C(=O)CN2CCCN3CCN(CCCN(CC(=O)O)CC3)CC2)cc1C(C)C (centres unmarked) [SR-CP-18]
distribution (NTSR1 [2]; 24 hr time point, FIG. 13): mainly showed tumor accumulation; also recorded: high contrast

background in major tissues/organs, including blood, muscle, liver and kidneys (PC3 tumor; PC3 tumor model): low background
clearance from mice (PC3 tumor; PC3 tumor model): cleared out from mice within a few hours
tumor retention (PC3 tumor; PC3 tumor model): low
tumor uptake (PC3 tumor; PC3 tumor model): 1.3±0.1 % ID/g
tumor/kidney ratio (PC3 tumor; [5]): 3.0±0.3
tumor/liver ratio (PC3 tumor; [5]): 15.6±4.1
tumor/muscle ratio (PC3 tumor; [5]): 19.4±5.5
tissue to tissue ratio at 3 h ([4]; tumor and kidney, read-out: tumor/kidney ratio): 3 ± 0.3
tissue to tissue ratio at 3 h ([4]; tumor and liver, read-out: tumor/liver ratio): 15.6 ± 4.1
tissue to tissue ratio at 3 h ([4]; tumor and muscle, read-out: tumor/muscle ratio): 19.4 ± 5.5
tissue uptake [4]: 1.3 %ID/g
SMILES: CC(C)C[C@H](NC(=O)[C@@H](NC(=O)[C@H](Cc1ccc(O)cc1)NC(=O)[C@@H]1CCCN1C(=O)[C@H](CCCNC(=N)N)NC(=O)[C@@H](NC(=O)[C@@H]1CCCN1C(=O)[C@@H](NC(=O)[C@@H](N)CSCCS(=O)(=O)CCOCCOCCF)C1CCNCC1)C1CCN(C(=N)N)CC1)C(C)(C)C)C(=O)O [^18F-VS-Cys-NTSmut] (H-C(X1)[Gly(piperidin-4-yl)]P[Gly(1-amidinopiperidin-4-yl)]RPY[Tle]L-OH; N-terminus assumed)
tumor uptake in the presence of cold NTS peptide (receptor specificity) (PC3 tumor; PC3 tumor, blocking with cold NTS peptide, listed as 18F-DEG-VS-NTS): successfully blocked; also recorded: efficiently blocked
